From PubChem BioAssay AID651642 (Sanford-Burnham Center for Chemical Genomics, 2012)

What was measured:
[1] = tested on: HL-1; assay: cardiomyocyte survival under oxidative or metabolic stress – cell-based, panel, H9c2 and HL-1, H2O2, 2-deoxyglucose, ATP luminescence, SAR follow-up (AID 651642)
[2] = tested on: H9c2; assay: as above
[3] = H9c2/HL-1 cardiomyocyte 2-deoxyglucose damage, mean of runs, with 2-deoxyglucose, mean IC50 across panel
[4] = H9c2/HL-1 cardiomyocyte 2-deoxyglucose damage, run 1, with 2-deoxyglucose
[5] = H9c2/HL-1 cardiomyocyte 2-deoxyglucose damage, run 2, with 2-deoxyglucose
[6] = H9c2/HL-1 cardiomyocyte 2-deoxyglucose damage, run 3, with 2-deoxyglucose
[7] = H9c2/HL-1 cardiomyocyte 2-deoxyglucose damage, run 4, with 2-deoxyglucose
[8] = H9c2/HL-1 cardiomyocyte H2O2 oxidative damage, mean of runs, with H2O2, mean IC50 across panel
[9] = H9c2/HL-1 cardiomyocyte H2O2 oxidative damage, run 1, with H2O2
[10] = H9c2/HL-1 cardiomyocyte H2O2 oxidative damage, run 2, with H2O2
[11] = H9c2/HL-1 cardiomyocyte H2O2 oxidative damage, run 3, with H2O2
[12] = H9c2/HL-1 cardiomyocyte H2O2 oxidative damage, run 4, with H2O2

COc1ccc2c(c1OC)C(=O)N1c3ccccc3C(=O)N(Cc3cccc(C)c3)C21 (stereo unspecified)
IC50 [1, 3]: 10.6 µM | IC50 [1, 4]: 7.52 µM | IC50 [1, 5]: 8.41 µM | IC50 [1, 6]: 12 µM | IC50 [1, 7]: 14.6 µM | IC50 [1, 8]: > 79 µM | IC50 [1, 9]: > 79 µM | IC50 [1, 10]: > 79 µM | IC50 [1, 11]: > 79 µM | IC50 [1, 12]: > 79 µM | IC50 [2, 3]: > 79 µM | IC50 [2, 4]: > 79 µM | IC50 [2, 5]: > 79 µM | IC50 [2, 6]: > 79 µM | IC50 [2, 7]: > 79 µM | IC50 [2, 9]: 5.63 µM | IC50 [2, 10]: 6 µM | IC50 [2, 11]: > 79 µM | IC50 [2, 12]: > 79 µM

COc1ccc2c(c1OC)C(=O)N1c3ccccc3C(=O)N(Cc3ccncc3)C21 (stereo unspecified)
IC50 [1, 3]: > 79 µM | IC50 [1, 4]: > 79 µM | IC50 [1, 5]: > 79 µM | IC50 [1, 6]: > 79 µM | IC50 [1, 7]: > 79 µM | IC50 [1, 9]: > 79 µM | IC50 [1, 10]: > 79 µM | IC50 [1, 11]: > 79 µM | IC50 [1, 12]: > 79 µM | IC50 [2, 3]: > 79 µM | IC50 [2, 4]: > 79 µM | IC50 [2, 5]: > 79 µM | IC50 [2, 6]: > 79 µM | IC50 [2, 7]: > 79 µM | IC50 [2, 9]: > 79 µM | IC50 [2, 10]: 55.3 µM | IC50 [2, 11]: > 79 µM | IC50 [2, 12]: > 79 µM

COc1cc(-c2cc(C(=O)Nc3cccc(C(=O)O)c3)c3ccccc3n2)cc(OC)c1OC
IC50 [1, 3]: > 79 µM | IC50 [1, 4]: > 79 µM | IC50 [1, 5]: > 79 µM | IC50 [1, 6]: > 79 µM | IC50 [1, 7]: > 79 µM | IC50 [1, 8]: > 79 µM | IC50 [1, 9]: > 79 µM | IC50 [1, 10]: > 79 µM | IC50 [1, 11]: > 79 µM | IC50 [1, 12]: > 79 µM | IC50 [2, 3]: > 79 µM | IC50 [2, 4]: > 79 µM | IC50 [2, 5]: > 79 µM | IC50 [2, 6]: > 79 µM | IC50 [2, 7]: > 79 µM | IC50 [2, 8]: > 79 µM | IC50 [2, 9]: > 79 µM | IC50 [2, 10]: > 79 µM | IC50 [2, 11]: > 79 µM | IC50 [2, 12]: > 79 µM

CCOC(=O)c1cccc(NC(=O)c2cc(-c3cc(OC)c(OC)c(OC)c3)nc3ccc(Cl)cc23)c1
IC50 [1, 3]: > 79 µM | IC50 [1, 4]: > 79 µM | IC50 [1, 5]: > 79 µM | IC50 [1, 6]: > 79 µM | IC50 [1, 7]: > 79 µM | IC50 [1, 9]: > 79 µM | IC50 [1, 10]: > 79 µM | IC50 [1, 11]: 1.79 µM | IC50 [1, 12]: 4.09 µM | IC50 [2, 3]: > 79 µM | IC50 [2, 4]: > 79 µM | IC50 [2, 5]: > 79 µM | IC50 [2, 6]: > 79 µM | IC50 [2, 7]: > 79 µM | IC50 [2, 9]: 3.38 µM | IC50 [2, 10]: 21.1 µM | IC50 [2, 11]: > 79 µM | IC50 [2, 12]: > 79 µM

CCOC(=O)c1cccc(NC(=O)c2cc(-c3cc(OC)c(OC)c(OC)c3)nc3c(Cl)cccc23)c1
IC50 [1, 3]: > 79 µM | IC50 [1, 4]: > 79 µM | IC50 [1, 5]: > 79 µM | IC50 [1, 6]: > 79 µM | IC50 [1, 7]: > 79 µM | IC50 [1, 9]: > 79 µM | IC50 [1, 10]: 11.1 µM | IC50 [1, 11]: > 79 µM | IC50 [1, 12]: > 79 µM | IC50 [2, 3]: > 79 µM | IC50 [2, 4]: > 79 µM | IC50 [2, 5]: > 79 µM | IC50 [2, 6]: > 79 µM | IC50 [2, 7]: > 79 µM | IC50 [2, 9]: > 79 µM | IC50 [2, 10]: 30.3 µM | IC50 [2, 11]: > 79 µM | IC50 [2, 12]: > 79 µM

COc1ccc2c(c1OC)C(=O)N1c3ccccc3C(=O)N(Cc3ccccn3)C21 (stereo unspecified)
IC50 [1, 3]: > 79 µM | IC50 [1, 4]: > 79 µM | IC50 [1, 5]: > 79 µM | IC50 [1, 6]: > 79 µM | IC50 [1, 7]: > 79 µM | IC50 [1, 8]: > 79 µM | IC50 [1, 9]: > 79 µM | IC50 [1, 10]: > 79 µM | IC50 [1, 11]: > 79 µM | IC50 [1, 12]: > 79 µM | IC50 [2, 3]: > 79 µM | IC50 [2, 4]: > 79 µM | IC50 [2, 5]: > 79 µM | IC50 [2, 6]: > 79 µM | IC50 [2, 7]: > 79 µM | IC50 [2, 9]: 7.56 µM | IC50 [2, 10]: 10.3 µM | IC50 [2, 11]: > 79 µM | IC50 [2, 12]: > 79 µM

COc1cc(-c2cc(C(=O)NCC(=O)Nc3cccc(C(C)=O)c3)c3cc(Br)ccc3n2)cc(OC)c1OC
IC50 [1, 3]: 3.83 µM | IC50 [1, 4]: 2.44 µM | IC50 [1, 5]: 4.64 µM | IC50 [1, 6]: 3.4 µM | IC50 [1, 7]: 4.85 µM | IC50 [1, 8]: 3.34 µM | IC50 [1, 9]: 3.56 µM | IC50 [1, 10]: 3.69 µM | IC50 [1, 11]: 2.7 µM | IC50 [1, 12]: 3.41 µM | IC50 [2, 3]: 6.44 µM | IC50 [2, 4]: 8.22 µM | IC50 [2, 5]: 8.41 µM | IC50 [2, 6]: 4.43 µM | IC50 [2, 7]: 4.71 µM | IC50 [2, 8]: 1.26 µM | IC50 [2, 9]: 1.48 µM | IC50 [2, 10]: 1.49 µM | IC50 [2, 11]: 1.02 µM | IC50 [2, 12]: 1.06 µM

COc1cc(-c2cc(C(=O)NCC(=O)Nc3cccc(C(C)=O)c3)c3cc(F)ccc3n2)cc(OC)c1OC
IC50 [1, 3]: 6.37 µM | IC50 [1, 4]: 3.22 µM | IC50 [1, 5]: 3.87 µM | IC50 [1, 6]: 8.99 µM | IC50 [1, 7]: 9.39 µM | IC50 [1, 8]: 6.46 µM | IC50 [1, 9]: 5.91 µM | IC50 [1, 10]: 5.98 µM | IC50 [1, 11]: 5.45 µM | IC50 [1, 12]: 8.51 µM | IC50 [2, 3]: 6.15 µM | IC50 [2, 4]: 7.04 µM | IC50 [2, 5]: 8.51 µM | IC50 [2, 6]: 4.17 µM | IC50 [2, 7]: 4.87 µM | IC50 [2, 8]: 1.29 µM | IC50 [2, 9]: 1.53 µM | IC50 [2, 10]: 1.98 µM | IC50 [2, 11]: 0.789 µM | IC50 [2, 12]: 0.865 µM

CCOC(=O)c1cccc(NC(=O)c2cc(-c3cc(OC)c(OC)c(OC)c3)nc3ccccc23)c1
IC50 [1, 4]: 3.23 µM | IC50 [1, 5]: 3.46 µM | IC50 [1, 6]: > 79 µM | IC50 [1, 7]: > 79 µM | IC50 [1, 8]: 4.62 µM | IC50 [1, 9]: 3.4 µM | IC50 [1, 10]: 4.59 µM | IC50 [1, 11]: 3.78 µM | IC50 [1, 12]: 6.72 µM | IC50 [2, 3]: > 79 µM | IC50 [2, 4]: > 79 µM | IC50 [2, 5]: > 79 µM | IC50 [2, 6]: > 79 µM | IC50 [2, 7]: > 79 µM | IC50 [2, 9]: 3.9 µM | IC50 [2, 10]: 4.44 µM | IC50 [2, 11]: > 79 µM | IC50 [2, 12]: > 79 µM

COc1ccccc1CN1C(=O)c2ccccc2N2C(=O)c3c(ccc(OC)c3OC)C12 (stereo unspecified)
IC50 [1, 3]: 5.37 µM | IC50 [1, 4]: 2.86 µM | IC50 [1, 5]: 3.96 µM | IC50 [1, 6]: 6.95 µM | IC50 [1, 7]: 7.71 µM | IC50 [1, 9]: > 79 µM | IC50 [1, 10]: > 79 µM | IC50 [1, 11]: 4.54 µM | IC50 [1, 12]: 12 µM | IC50 [2, 4]: > 79 µM | IC50 [2, 5]: > 79 µM | IC50 [2, 6]: 43.5 µM | IC50 [2, 7]: 46.2 µM | IC50 [2, 9]: > 79 µM | IC50 [2, 10]: 0.303 µM | IC50 [2, 11]: > 79 µM | IC50 [2, 12]: > 79 µM

CCOC(=O)c1cccc(NC(=O)CNC(=O)c2cc(-c3cc(OC)c(OC)c(OC)c3)nc3ccc(Br)cc23)c1
IC50 [1, 3]: 1.87 µM | IC50 [1, 4]: 1.25 µM | IC50 [1, 5]: 1.42 µM | IC50 [1, 6]: 1.96 µM | IC50 [1, 7]: 2.86 µM | IC50 [1, 8]: 2.04 µM | IC50 [1, 9]: 2.32 µM | IC50 [1, 10]: 2.54 µM | IC50 [1, 11]: 1.26 µM | IC50 [1, 12]: 2.05 µM | IC50 [2, 3]: 4.52 µM | IC50 [2, 4]: 4.66 µM | IC50 [2, 5]: 6.47 µM | IC50 [2, 6]: 3.26 µM | IC50 [2, 7]: 3.71 µM | IC50 [2, 8]: 1.34 µM | IC50 [2, 9]: 1.44 µM | IC50 [2, 10]: 1.74 µM | IC50 [2, 11]: 0.953 µM | IC50 [2, 12]: 1.24 µM

CCOC(=O)c1cccc(NC(=O)CNC(=O)c2cc(-c3cc(OC)c(OC)c(OC)c3)nc3ccccc23)c1
IC50 [1, 4]: 2.08 µM | IC50 [1, 5]: 2.42 µM | IC50 [1, 6]: > 79 µM | IC50 [1, 7]: > 79 µM | IC50 [1, 9]: 9.1 µM | IC50 [1, 10]: 17.9 µM | IC50 [1, 11]: > 79 µM | IC50 [1, 12]: > 79 µM | IC50 [2, 4]: 8.17 µM | IC50 [2, 5]: 9.67 µM | IC50 [2, 6]: > 79 µM | IC50 [2, 7]: > 79 µM | IC50 [2, 9]: 2.07 µM | IC50 [2, 10]: 2.14 µM | IC50 [2, 11]: > 79 µM | IC50 [2, 12]: > 79 µM

CCOC(=O)c1cccc(NC(=O)c2cc(-c3cc(OC)c(OC)c(OC)c3)nc3ccc(Br)cc23)c1
IC50 [1, 3]: > 79 µM | IC50 [1, 4]: > 79 µM | IC50 [1, 5]: > 79 µM | IC50 [1, 6]: > 79 µM | IC50 [1, 7]: > 79 µM | IC50 [1, 9]: > 79 µM | IC50 [1, 10]: > 79 µM | IC50 [1, 11]: > 79 µM | IC50 [1, 12]: 4.69 µM | IC50 [2, 3]: > 79 µM | IC50 [2, 4]: > 79 µM | IC50 [2, 5]: > 79 µM | IC50 [2, 6]: > 79 µM | IC50 [2, 7]: > 79 µM | IC50 [2, 9]: 2.86 µM | IC50 [2, 10]: 3.15 µM | IC50 [2, 11]: > 79 µM | IC50 [2, 12]: > 79 µM
